Laboratory results published in US20230357765A1, “USE OF LONG NON-CODING RNAS IN MEDULLOBLASTOMA” (THE JOHNS HOPKINS UNIVERSITY, priority 2020, published 2023).
l = locked nucleic acid (LNA); d = 2'-deoxy (DNA)

Legend:
[1] = test system: D425 Med and MED211 MB cells; assay: Cell proliferation assay, living cells counted by trypan blue staining; assay type: cell-based, human
Protocol: (§1) Cell Culture. Cell lines were authenticated using single tandem repeat profiling. D425 Med cells were cultured in DMEM/ F12 with 10% serum and 1% glutamate/penicillin/streptomycin. MED211 cells were cultured in medium composed of 30% Ham’s F12/70% DMEM, 1% antibiotic antimycotic, 20% B27 supplement, 5 µg/mL heparin, 20 ng/mL epidermal growth factor (EGF), and 20 ng/mL fibroblast growth factor 2. DAOY cells were cultured in DMEM with 10% serum and 1% glutamate/penicillin/streptomycin. All cells were grown in a humidified incubator at 37° C., 5% CO2. For blocking of bromodomain and extraterminal domain family (BET) bromodomain protein in D425 Med and MED211 cells, Jun Qi 1 (JQ1) (SML1524-5MG, Sigma Aldrich) was added, and the medium was changed every other day.
Cell Proliferation, Apoptosis, and 3D Colony Formation Assays. Cells were plated in 96-well plates at 5 × 10^3 cells per well in triplicate. After 72 hours of ASO or siRNA transfection, living cells were counted by trypan blue staining. Apoptotic cells were analyzed using a GloMax luminometer (Promega) with conditions optimized for the Caspase-Glo 3/7 Assay. […] Colony number was determined using the EVE cell counter (Nano Entek), and staining intensity was analyzed using ImageJ software.

[2] = test system: D425 Med and MED211 intracranial xenografts; assay: Intracranial MB xenografts treated with JQ1, bioluminescence imaging and qPCR of tumors; assay type: in vivo, NOD-SCID mice; conditions: JQ1 50 mg/kg intraperitoneal on alternating days for 14 days; versus DMSO
Protocol: FIGS. 10A-10C. JQ1 regulates lnc-HLX-2-7 via MYC in vivo. (FIG. 10A) D425 Med and MED211 cells expressing luciferase were implanted into the […] of NOD-SCID mice. Seven days after injection, mice were administered DMSO or JQ1. Tumor formation was assessed by bioluminescence imaging. Changes in bioluminescent signal were examined weekly after tumor implantation. (FIG. 10B) Quantification of total photon counts from mice treated with JQ1 or DMSO. n=4, *p<0.05, Student’s t-test. (FIG. 10C) Expression levels of MYC and lnc-HLX-2-7 were examined by qPCR in DMSO or JQ1-treated mouse xenografts. Relative expression levels compared to those in the DMSO-treated tumor are indicated on the y-axis (n=4). Error bars indicate s.e.m. n=4, *p<0.01, Student’s t-test.
Medulloblastoma Xenografts (Intracranial). All mouse studies were approved and performed in accordance with the policies and regulations of the Animal Care and Use Committee of Johns Hopkins University. Intracranial MB xenografts were established by injecting D425 Med cells, MED211 cells, D425 Med cells with lnc- HLX-2-7 deleted, and MED211 cells with lnc-HLX-2-7 deleted into the cerebellums of NOD-SCID mice (Jackson Laboratory). […] Tumor growth was evaluated by weekly bioluminescence imaging using an in vivo spectral imaging system (IVIS Lumina II, Xenogen).

MYC = MYC expression in JQ1-treated cells, qRT-PCR; assay type: cell-based, human; conditions: D425 Med and MED211 cells; JQ1 100 or 300 nM; relative to DMSO
Protocol: as §1
(§2) Quantitative Real-Time PCR. Total RNA was purified using the Direct-zol RNA Miniprep kit (Zymo Research). To obtain RNA from xenografts, tumor tissues were pulverized and then used for purification. Quantitative PCR was carried out using SYBR Green mRNA assays as previously described.^8 Primer sequences are listed in Tables 8-9 and Supplementary Table 2 (available online).
(§3) JQ1 Regulates lnc-HLX-2-7via MYC. […] In addition, downregulation of lnc-HLX-2-7 by JQ1 was also confirmed in vivo (FIGS. 10).

lnc-HLX-2-7 [3] = assay: lnc-HLX-2-7 expression in JQ1-treated cells, qRT-PCR; assay type: cell-based, human; conditions: D425 Med and MED211 cells; JQ1 100 or 300 nM; relative to DMSO
Protocol: as §1, §2, §3

HLX = HLX expression after ASO treatment, qRT-PCR; assay type: cell-based, human; conditions: D425 Med and MED211 cells treated with ASO
From the text: FIG. 8. lnc-HLX-2-7regulates the expression of HLX coding gene. Expression levels of HLX in D425 Med and MED211 cells treated with ASO against the indicated genes in the x-axis. Relative expression level to mock is indicated in the y-axis. *p<0.01, Kruskal-Wallis analysis.
as §2
(§4) Antisense Oligonucleotides. Lnc-HLX-2-7 Antisense oligonucleotides (ASOs) were designed using the Integrated DNA Technologies (IDT) Antisense Design Tool (IDT). ASO knockdowns were performed with 50 nM (final concentration) locked nucleic acid (LNA) GapmeRs transfected with Lipofectamine 3000 (Thermo Fisher Scientific). All ASOs were modified with phosphorothioate (PS) linkages.

[4] = test system: D425 Med and MED211 MB cells; assay: Apoptosis assay (Caspase-Glo 3/7); assay type: cell-based, human; conditions: 72 hours after ASO transfection, P < 0.01
Protocol: Cell Proliferation, Apoptosis, and 3D Colony Formation Assays. Cells were plated in 96-well plates at 5 × 10^3 cells per well in triplicate. After 72 hours of ASO or siRNA transfection, living cells were counted by trypan blue staining. Apoptotic cells were analyzed using a GloMax luminometer (Promega) with conditions optimized for the Caspase-Glo 3/7 Assay. For the 3D colony formation assay, cells were seeded in 24-well plates at a density of 1 × 10^2 cells/well and were stained with crystal violet solution approximately 14 days later. Colony number was determined using the EVE cell counter (Nano Entek), and staining intensity was analyzed using ImageJ software.

lnc-HLX-2-7 [5] = assay: ASO knockdown of lnc-HLX-2-7, expression by qRT-PCR; assay type: cell-based, human; conditions: D425 Med and MED211 cells; 50 nM ASO, Lipofectamine 3000; compared with ASO-Luc; P < 0.01
Protocol: FIGS. 48A-48C. Confirmation of ASO design and knockdown effect of lnc-HLX-2-7. (FIG. 48A) Diagram showing the sites targeted by each ASO. (FIGS. 48B-48C) Expression level of lnc-HLX-2-7in D425 Med (FIG. 48B) and MED211 (FIG. 48C) cells treated with ASO against the indicated genes on the x-axis. ASOs were transfected at 50 nM for 72 h using Lipofectamine 3000 (Thermo Fisher Scientific, Waltham MA). The efficiency was determined by qRT-PCR. Relative expression level to luciferase (Luc) gene is indicated on the y-axis. *p<0.01, Kruskal-Wallis analysis.
as §2
as §4, with “linkages. […]” for “linkages.”

Compound	cell growth (viable cell numbers) with JQ1 ([1]; effect suppressed by overexpression of lnc-HLX-2-7 (pcDNA4-lnc-HLX-2-7))	lnc-HLX-2-7 expression in xenograft tumors [2]	MYC expression (MYC)	lnc-HLX-2-7 expression (lnc-HLX-2-7 [3])	HLX expression (HLX)	MB cell growth (viable cell numbers) ([1]; 72 hours after ASO transfection, P < 0.01)	apoptosis (apoptotic cell numbers) [4]	lnc-HLX-2-7 expression (lnc-HLX-2-7 [5])
Cc1sc2c(c1C)C(c1ccc(Cl)cc1)=N[C@@H](CC(=O)OC(C)(C)C)c1nnc(C)n1-2 [JQ1, Jun Qi 1 (JQ1)]	cell growth inhibition	downregulation	downregulated	downregulated				
+T^∗+G^∗+A^∗G^∗A^∗G^∗A^∗T^∗T^∗A^∗A^∗T^∗C^∗T^∗A^∗G^∗A^∗T^∗+T^∗+G^∗+C (TGAGAGATTAATCTAGATTGC; sugars from the 5' end l3 d15 l3, all phosphorothioate, methylation of C not given here) [ASO-lnc-HLX-2-7]					significantly reduced	significantly suppressed	induced apoptosis	significantly decreased
